ChEMBL document CHEMBL1201862, “PubChem BioAssay data set” (2004)
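Protocol summary: plate cells (96-well), add compound at 5 concentrations, incubate 48 h, interpolate endpoints linearly. GI50 is the concentration that inhibits growth by half.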 Calls of active or inactive are those of the source. No stated cut-off is given here; in the data, active = GI50 up to about 1.1 µM and inactive = higher. Non-standard residues stand in square brackets, D forms with d. Residues, ends and D or L forms follow the SMILES beside them. ξ: configuration not given here. *: point of attachment. NMeF = CN[C@@H](Cc1ccccc1)C(=O)O; NMeN = CN[C@@H](CC(N)=O)C(=O)O; NMeV = CN[C@H](C(=O)O)C(C)C; ξNMeV = CNC(C(=O)O)C(C)C; Boc = CC(C)(C)OC(=O)*; ξNMeA = CNC(C)C(=O)O; ξV = CC(C)C(N)C(=O)O

How the values were obtained:
Test in all cases: NCI anticancer screen, dose series, 48 h
CAKI-1 = tested on: CAKI-1
HCC 2998 = tested on: HCC 2998
HL-60 = tested on: HL-60
HT-29 = tested on: HT-29
LOX IMVI = tested on: LOX IMVI
M14 = tested on: M14
MCF7 = tested on: MCF7
MOLT-4 = tested on: MOLT-4
NCI-H226 = tested on: NCI-H226
OVCAR-3 = tested on: OVCAR-3
PC-3 = tested on: PC-3
RPMI-8226 = tested on: RPMI-8226
SF-268 = tested on: SF-268
SF-295 = tested on: SF-295
SK-MEL-28 = tested on: SK-MEL-28
SK-MEL-2 = tested on: SK-MEL-2
SN12C = tested on: SN12C
SNB-19 = tested on: SNB-19
U-251 = tested on: U-251
UO-31 = tested on: UO-31

Structure (SMILES) | GI50 (CAKI-1) | GI50 (HCC 2998) | GI50 (HL-60) | GI50 (HT-29) | GI50 (LOX IMVI) | GI50 (M14) | GI50 (MCF7) | GI50 (MOLT-4) | GI50 (NCI-H226) | GI50 (OVCAR-3) | GI50 (PC-3) | GI50 (RPMI-8226) | GI50 (SF-268) | GI50 (SF-295) | GI50 (SK-MEL-28) | GI50 (SK-MEL-2) | GI50 (SN12C) | GI50 (SNB-19) | GI50 (U-251) | GI50 (UO-31)
Cn1[nH]nn/c1=N\N=C\c1ccccc1 | > 10 µM (inactive) | > 10 µM (inactive) | > 10 µM (inactive) | > 10 µM (inactive) | > 10 µM (inactive) | > 10 µM (inactive) | > 10 µM (inactive) | > 10 µM (inactive) | > 10 µM (inactive) | > 10 µM (inactive) | > 10 µM (inactive) | > 10 µM (inactive) | > 10 µM (inactive) | > 10 µM (inactive) | > 10 µM (inactive) | > 10 µM (inactive) | > 10 µM (inactive) | > 10 µM (inactive) | > 10 µM (inactive) | > 10 µM (inactive)
CN1C/C(=C\c2ccc(Cl)cc2)C(=O)/C(=C/c2ccc(Cl)cc2)C1 | 1.3 µM (inactive) | 2.33 µM (inactive) | 0.676 µM (active) | 0.294 µM (active) | 0.237 µM (active) | 1.73 µM (inactive) | 0.453 µM (active) | 0.326 µM (active) | 4.45 µM (inactive) | 1.63 µM (inactive) | 1.77 µM (inactive) | 0.193 µM (active) | 1.63 µM (inactive) | 0.667 µM (active) | 3.78 µM (inactive) | > 88.9 µM (inactive) | 0.771 µM (active) | 1.25 µM (inactive) | 0.454 µM (active) | 1.77 µM (inactive)
Cc1c(C(=O)OCc2ccccc2)[n+]([O-])c2cc(Cl)c(Cl)cc2[n+]1[O-] | 13 µM (inactive) | 15.2 µM (inactive) | 11.7 µM (inactive) | 17.1 µM (inactive) | 17.2 µM (inactive) | 15 µM (inactive) | 19.5 µM (inactive) | 3.28 µM (inactive) | 5.77 µM (inactive) | 12.2 µM (inactive) | 15.7 µM (inactive) | 6.46 µM (inactive) | 17.5 µM (inactive) | 16.8 µM (inactive) | 25.1 µM (inactive) | 17.4 µM (inactive) | 18.1 µM (inactive) | 27 µM (inactive) | 24.6 µM (inactive) | 16.4 µM (inactive)
C#CC1=CC(=O)C(OC)=CC1=O | 18.6 µM (inactive) | 30.1 µM (inactive) | 2.44 µM (inactive) | 23.3 µM (inactive) | 17.6 µM (inactive) | 16.5 µM (inactive) | 14.8 µM (inactive) | 3.25 µM (inactive) | 19.3 µM (inactive) | 33.5 µM (inactive) | 53.2 µM (inactive) | 17.8 µM (inactive) | 43.4 µM (inactive) | 29.4 µM (inactive) | 37.2 µM (inactive) | 15.7 µM (inactive) | 17.6 µM (inactive) | > 100 µM (inactive) | 31.9 µM (inactive) | 4.68 µM (inactive)
Nc1ncnc2nc(N3CCN(CCO)CC3)[nH]c12 | > 100 µM (inactive) | > 100 µM (inactive) | > 100 µM (inactive) | > 100 µM (inactive) | > 100 µM (inactive) | > 100 µM (inactive) | > 100 µM (inactive) | 50.6 µM (inactive) | > 100 µM (inactive) | > 100 µM (inactive) | > 100 µM (inactive) | > 100 µM (inactive) | > 100 µM (inactive) | > 100 µM (inactive) | > 100 µM (inactive) | > 100 µM (inactive) | > 100 µM (inactive) | > 100 µM (inactive) | > 100 µM (inactive) | > 100 µM (inactive)
CCCCCCCCCCCC(=O)c1c(O)cc(C)oc1=O | 40.4 µM (inactive) | 42 µM (inactive) | 42.4 µM (inactive) | 66.7 µM (inactive) | 28.1 µM (inactive) | 79.1 µM (inactive) | 37.8 µM (inactive) | 23.1 µM (inactive) | 45.6 µM (inactive) | 55.5 µM (inactive) | 27.2 µM (inactive) | > 100 µM (inactive) | 42.2 µM (inactive) | 42.8 µM (inactive) | 75 µM (inactive) | 56.4 µM (inactive) | 33.3 µM (inactive) | 62.7 µM (inactive) | 48.5 µM (inactive) | 40.6 µM (inactive)
O=C(NNC(=O)c1ccccc1O)c1cccc(Br)c1 | 24.3 µM (inactive) | 17.7 µM (inactive) | 5.82 µM (inactive) | 43 µM (inactive) | 15.2 µM (inactive) | 26.9 µM (inactive) | 6.71 µM (inactive) | 9.23 µM (inactive) | 23.2 µM (inactive) | 8.47 µM (inactive) | 44.8 µM (inactive) | 15.2 µM (inactive) | 24.9 µM (inactive) | 27.3 µM (inactive) | > 91.8 µM (inactive) | > 70 µM (inactive) | 98.9 µM (inactive) | 73.6 µM (inactive) | > 100 µM (inactive) | 10.7 µM (inactive)
O/N=C/C1c2ccccc2-c2ccccc21 | 14 µM (inactive) | 15.9 µM (inactive) | 31.3 µM (inactive) | 14.8 µM (inactive) | 23 µM (inactive) | 16.9 µM (inactive) | 16 µM (inactive) | 24 µM (inactive) | 15 µM (inactive) | 16.1 µM (inactive) | 17.2 µM (inactive) | 21.5 µM (inactive) | 15.3 µM (inactive) | 22.5 µM (inactive) | 15.7 µM (inactive) | 17.1 µM (inactive) | 16.4 µM (inactive) | 18.4 µM (inactive) | 19.4 µM (inactive) | 15.1 µM (inactive)
O=C(O)C1CC(O)CN1 (stereo not given) | > 100 µM (inactive) | > 100 µM (inactive) | > 100 µM (inactive) | > 100 µM (inactive) | > 100 µM (inactive) | > 100 µM (inactive) | > 100 µM (inactive) | > 100 µM (inactive) | > 100 µM (inactive) | > 100 µM (inactive) | > 100 µM (inactive) | > 100 µM (inactive) | > 100 µM (inactive) | > 100 µM (inactive) | > 100 µM (inactive) | > 100 µM (inactive) | > 100 µM (inactive) | > 100 µM (inactive) | > 100 µM (inactive) | > 100 µM (inactive)
COC(=O)C(C)N(C)C(=O)[C@H](CC(N)=O)N(C)C(=O)[C@@H]1CCCN1C(=O)[C@H](C(C)C)N(C)C(=O)C(C(C)C)N(C)C(=O)[C@H](Cc1ccccc1)N(C)C(=O)C(NC(=O)OC(C)(C)C)C(C)C (stereo not given in full) (Boc-[ξV][NMeF][ξNMeV][NMeV]P[NMeN][ξNMeA]-OMe) | > 50 µM (inactive) | 18.8 µM (inactive) | 15.6 µM (inactive) | 18.3 µM (inactive) | 9.44 µM (inactive) | 15.9 µM (inactive) | 14.2 µM (inactive) | 8.95 µM (inactive) | 12.1 µM (inactive) | 12.5 µM (inactive) | 16.1 µM (inactive) | 12.4 µM (inactive) | 13.9 µM (inactive) | 12 µM (inactive) | 18.2 µM (inactive) | 9.1 µM (inactive) | 26 µM (inactive) | 19.7 µM (inactive) | 11.2 µM (inactive) | 37.8 µM (inactive)
COC(=O)C1CCC(=O)N1C(c1ccc(OC)cc1)c1ccc(OC)cc1 (stereo not given) | > 100 µM (inactive) | > 100 µM (inactive) | > 100 µM (inactive) | > 100 µM (inactive) | > 100 µM (inactive) | > 100 µM (inactive) | > 100 µM (inactive) | > 100 µM (inactive) | > 100 µM (inactive) | > 100 µM (inactive) | > 100 µM (inactive) | > 100 µM (inactive) | > 100 µM (inactive) | > 100 µM (inactive) | > 100 µM (inactive) | > 100 µM (inactive) | > 100 µM (inactive) | > 100 µM (inactive) | > 100 µM (inactive) | > 100 µM (inactive)
Cc1[nH]c(-c2ccccc2)c(-c2ccc(Cl)cc2)c1C(=O)ONC(=O)c1ccccc1 | 2.44 µM (inactive) | 3.32 µM (inactive) | 1.5 µM (inactive) | 4.6 µM (inactive) | 1.39 µM (inactive) | 4.55 µM (inactive) | 11.9 µM (inactive) | 2.69 µM (inactive) | 3.61 µM (inactive) | 3.2 µM (inactive) | 4.94 µM (inactive) | 3.02 µM (inactive) | 2.34 µM (inactive) | 2.1 µM (inactive) | 8.38 µM (inactive) | 2.9 µM (inactive) | 2.25 µM (inactive) | 4.86 µM (inactive) | 1.78 µM (inactive) | 0.113 µM (active)
O=c1c2cc(S(=O)(=O)Nc3ccc(Cl)cc3Cl)ccc2ncn1NS(=O)(=O)c1cccc2ccccc12 | 15.7 µM (inactive) | 20 µM (inactive) | 14.5 µM (inactive) | 32 µM (inactive) | 15.5 µM (inactive) | 93.8 µM (inactive) | 20.7 µM (inactive) | 18.2 µM (inactive) | 18.6 µM (inactive) | 33.9 µM (inactive) | 23.7 µM (inactive) | 21.1 µM (inactive) | 30.3 µM (inactive) | 37.4 µM (inactive) | 99.5 µM (inactive) | 38.1 µM (inactive) | 91.6 µM (inactive) | 21.6 µM (inactive) | 58.2 µM (inactive) | 14.1 µM (inactive)
